# Measurements from patent publication US10144715B2, “Piperazine derivatives as liver X receptor modulators” (priority 2014, dated 2018).
# Read-outs that look alike come from different tables or passages of the source.
# Columns and labels:
# LXR α LBD protein = LXR α LBD protein (Homo sapiens (Human), UniProt Q13133); assay: LXR α radioligand binding assay (SPA, competition with [3H]TO901317); details: read-out: LXRα Binding Ki
# LXR β LBD protein = LXR β LBD protein (Homo sapiens (Human), UniProt P55055); assay: biochemical; type: binding
# Chain of LXR β LBD protein (P55055 222-460 limits assumed): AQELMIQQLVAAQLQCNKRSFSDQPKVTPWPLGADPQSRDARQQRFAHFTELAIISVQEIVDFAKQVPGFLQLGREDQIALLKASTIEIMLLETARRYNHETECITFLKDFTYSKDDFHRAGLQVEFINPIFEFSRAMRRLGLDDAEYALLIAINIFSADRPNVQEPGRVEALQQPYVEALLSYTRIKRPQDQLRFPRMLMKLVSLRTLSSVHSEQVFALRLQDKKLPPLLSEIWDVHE
# [1] = biological target: Gal4 DNA binding domain fused to the LBD of LXRα in HEK293 cells (Homo sapiens (Human), UniProt Q13133); assay: LXR luciferase transcriptional reporter gene assay, agonist mode, LXRα; type: cell-based; details: for EC50: read-out: Cell LXRα EC50
# Chain of Gal4 DNA binding domain fused to the LBD of LXRα in HEK293 cells (Q13133 209-447): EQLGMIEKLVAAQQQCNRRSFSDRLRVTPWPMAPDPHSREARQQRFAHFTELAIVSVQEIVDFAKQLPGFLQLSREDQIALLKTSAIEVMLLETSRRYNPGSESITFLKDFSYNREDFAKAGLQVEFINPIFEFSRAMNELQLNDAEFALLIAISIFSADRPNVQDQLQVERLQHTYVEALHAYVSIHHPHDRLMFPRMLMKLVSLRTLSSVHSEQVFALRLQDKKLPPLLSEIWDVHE
# [2] = biological target: Gal4 DNA binding domain fused to the LBD of LXRβ in HEK293 cells (Homo sapiens (Human), UniProt P55055); assay: cell-based; details: for Cell LXRβ efficacy: agonist mode
# Chain of Gal4 DNA binding domain fused to the LBD of LXRβ in HEK293 cells (P55055 222-460 limits assumed): as the sequence (P55055 222-460 limits assumed) above
# Chain of LXR α LBD protein (Q13133 209-447): as the sequence (Q13133 209-447) above
Ki (LXR β LBD protein) [nM],SMILES,Ki (LXR α LBD protein) [nM],Cell LXRα efficacy [1],EC50 ([1]; agonist mode) [nM],EC50 [2] [nM],Ki (LXR β LBD protein; read-out: LXRβ Binding Ki) [nM],Cell LXRβ efficacy [2],EC50 [1] [nM]
–,"CNC(=O)c1cnc(N2CCN(c3ccc(F)c(S(C)(=O)=O)c3)C[C@H]2C(C)C)nc1C(F)(F)F [17-3, (R)-2-(4-(4-fluoro-3-(methylsulfonyl)phenyl)-2-isopropylpiperazin-1-yl)-N-methyl-4-(trifluoromethyl)pyrimidine-5-carboxamide]",2690,5514 (29) %,5510,448,188,448 (18) %,–
–,"COCCNC(=O)c1cnc(N2CCN(c3ccc(F)c(S(C)(=O)=O)c3)C[C@H]2C(C)C)nc1C(F)(F)F [17-6, (R)-2-(4-(4-fluoro-3-(methylsulfonyl)phenyl)-2-isopropylpiperazin-1-yl)-N-(2-methoxyethyl)-4-(trifluoromethyl)pyrimidine-5-carboxamide]",> 3330,–,> 20000,> 20000,532,–,–
507,"CC(C)[C@@H]1CN(c2ccc(F)c(S(C)(=O)=O)c2)CCN1c1ncc(C(=O)N(C)CCO)c(C(F)(F)F)n1 [17-7, (R)-2-(4-(4-fluoro-3-(methylsulfonyl)phenyl)-2-isopropylpiperazin-1-yl)-N-(2-hydroxyethyl)-N-methyl-4-(trifluoromethyl)pyrimidine-5-carboxamide]",> 3330,–,–,> 20000,–,–,> 20000
–,"COC1CN(C(=O)c2cnc(N3CCN(c4ccc(F)c(S(C)(=O)=O)c4)C[C@H]3C(C)C)nc2C(F)(F)F)C1 [17-9, (R)-(2-(4-(4-fluoro-3-(methylsulfonyl)phenyl)-2-isopropylpiperazin-1-yl)-4-(trifluoromethyl)pyrimidin-5-yl)(3-methoxyazetidin-1-yl)methanone]",> 3330,–,–,> 20000,410,–,> 20000
–,"COCCCN(C)C(=O)c1cnc(N2CCN(c3ccc(F)c(S(C)(=O)=O)c3)C[C@H]2C(C)C)nc1C(F)(F)F [17-13, (R)-2-(4-(4-fluoro-3-(methylsulfonyl)phenyl)-2-isopropylpiperazin-1-yl)-N-(3-methoxypropyl)-N-methyl-4-(trifluoromethyl)pyrimidine-5-carboxamide]",2880,–,> 20000,> 20000,253,–,–
–,"CCN(CCOC)C(=O)c1cnc(N2CCN(c3ccc(F)c(S(C)(=O)=O)c3)C[C@H]2C(C)C)nc1C(F)(F)F [17-14, (R)-N-ethyl-2-(4-(4-fluoro-3-(methylsulfonyl)phenyl)-2-isopropylpiperazin-1-yl)-N-(2-methoxyethyl)-4-(trifluoromethyl)pyrimidine-5-carboxamide]",915,–,> 20000,> 20000,113,–,–
–,"CCN(CCCO)C(=O)c1cnc(N2CCN(c3ccc(F)c(S(C)(=O)=O)c3)C[C@H]2C(C)C)nc1C(F)(F)F [17-15, (R)-N-ethyl-2-(4-(4-fluoro-3-(methylsulfonyl)phenyl)-2-isopropylpiperazin-1-yl)-N-(3-hydroxypropyl)-4-(trifluoromethyl)pyrimidine-5-carboxamide]",> 3330,–,–,> 20000,360,–,> 20000
–,"COC(=O)NCCCN(C)C(=O)c1cnc(N2CCN(c3ccc(F)c(S(C)(=O)=O)c3)C[C@H]2C(C)C)nc1C(F)(F)F [17-19, methyl (R)-(3-(2-(4-(4-fluoro-3-(methylsulfonyl)phenyl)-2-isopropylpiperazin-1-yl)-N-methyl-4-(trifluoromethyl)pyrimidine-5-carboxamido)propyl)carbamate]",> 3330,–,> 20000,> 20000,584,–,–
–,"CC(C)[C@@H]1CN(c2ccc(F)c(S(C)(=O)=O)c2)CCN1c1ncc(C(=O)N(C)CCCNC(=O)OC(C)(C)C)c(C(F)(F)F)n1 [17-23, tert-butyl (R)-(3-(2-(4-(4-fluoro-3-(methylsulfonyl)phenyl)-2-isopropylpiperazin-1-yl)-N-methyl-4-(trifluoromethyl)pyrimidine-5-carboxamido)propyl)carbamate]",1420,–,> 20000,> 20000,257,–,–
–,"Cc1nc(N2CCN(c3ccc(F)c(S(C)(=O)=O)c3)C[C@H]2C(C)C)ncc1C(N)=O [17-24, (R)-2-(4-(4-fluoro-3-(methylsulfonyl)phenyl)-2-isopropylpiperazin-1-yl)-4-methylpyrimidine-5-carboxamide]",> 3330,–,> 20000,> 20000,611,–,–
–,"COCCN(C)C(=O)c1cnc(N2CCN(c3ccc(F)c(S(C)(=O)=O)c3)C[C@H]2C(C)C)nc1C [17-26, (R)-2-(4-(4-fluoro-3-(methylsulfonyl)phenyl)-2-isopropylpiperazin-1-yl)-N-(2-methoxyethyl)-N,4-dimethylpyrimidine-5-carboxamide]",> 3330,–,> 20000,> 20000,2330,–,–
–,"Cc1nc(N2CCN(c3ccc(F)c(S(C)(=O)=O)c3)C[C@H]2C(C)C)ncc1C(=O)N(C)CCCO [17-27, (R)-2-(4-(4-fluoro-3-(methylsulfonyl)phenyl)-2-isopropylpiperazin-1-yl)-N-(3-hydroxypropyl)-N,4-dimethylpyrimidine-5-carboxamide]",> 3330,–,–,> 20000,> 2500,–,> 20000
–,"CC(C)[C@@H]1CN(c2cc(S(C)(=O)=O)c(CO)cc2F)CCN1c1ncc(C(N)=O)c(C(F)(F)F)n1 [17-29, (R)-2-(4-(2-fluoro-4-(hydroxymethyl)-5-(methylsulfonyl)phenyl)-2-isopropylpiperazin-1-yl)-4-(trifluoromethyl)pyrimidine-5-carboxamide]",1270,1950 (15) %,1950,142,191,142 (17) %,–
1800,"CCN(CCOC)C(=O)c1cnc(N2CCN(c3ccc(F)c(S(C)(=O)=O)c3)C[C@H]2C(C)C)nc1C [17-30, (R)-N-ethyl-2-(4-(4-fluoro-3-(methylsulfonyl)phenyl)-2-isopropylpiperazin-1-yl)-N-(2-methoxyethyl)-4-methylpyrimidine-5-carboxamide]",> 3330,–,> 20000,> 20000,–,–,–
2450,"COCCCN(C)C(=O)c1cnc(N2CCN(c3ccc(F)c(S(C)(=O)=O)c3)C[C@H]2C(C)C)nc1C [17-31, (R)-2-(4-(4-fluoro-3-(methylsulfonyl)phenyl)-2-isopropylpiperazin-1-yl)-N-(3-methoxypropyl)-N,4-dimethylpyrimidine-5-carboxamide]",> 3330,–,> 20000,> 20000,–,–,–
1220,"CN(C)C(=O)c1cnc(N2CCN(c3ccc(F)c(S(C)(=O)=O)c3)C[C@H]2c2ccc(F)cc2)nc1C(F)(F)F [17-33, (R)-2-(4-(4-fluoro-3-(methylsulfonyl)phenyl)-2-(4-fluorophenyl)piperazin-1-yl)-N,N-dimethyl-4-(trifluoromethyl)pyrimidine-5-carboxamide]",10600,–,> 20000,> 20000,–,–,–
–,"CC(C)[C@@H]1CN(c2ccc(CO)c(S(C)(=O)=O)c2)CCN1c1nc(C(F)(F)F)c(C(=O)N(C)C)s1 [17-34, (R)-2-(4-(4-(hydroxymethyl)-3-(methylsulfonyl)phenyl)-2-isopropylpiperazin-1-yl)-N,N-dimethyl-4-(trifluoromethyl)thiazole-5-carboxamide]",152,465 (98) %,465,105,23,105 (94) %,–
–,"CC(C)[C@@H]1CN(c2ccc(CO)c(S(C)(=O)=O)c2)CCN1c1nc(C(F)(F)F)c(C(N)=O)s1 [17-35, (R)-2-(4-(4-(hydroxymethyl)-3-(methylsulfonyl)phenyl)-2-isopropylpiperazin-1-yl)-4-(trifluoromethyl)thiazole-5-carboxamide]",1660,1738 (19) %,–,161,111,161 (23) %,1740
–,"CC(C)[C@@H]1CN(c2ccc(CO)c(S(C)(=O)=O)c2)CCN1c1nc(C(F)(F)F)c(C(C)(C)O)o1 [26-2, (R)-2-(2-(4-(4-(hydroxymethyl)-3-(methylsulfonyl)phenyl)-2-isopropylpiperazin-1-yl)-4-(trifluoromethyl)oxazol-5-yl)propan-2-ol]",1180,2233 (99) %,–,329,72,329 (74) %,2230
–,"CC(C)(O)CC1CN(c2ccc(F)c(S(C)(=O)=O)c2)CCN1c1ccc(C(F)(F)F)cn1 (stereo not shown) [34-1, 1-(4-(4-fluoro-3-(methylsulfonyl)phenyl)-1-(5-(trifluoromethyl)pyridin-2-yl)piperazin-2-yl)-2-methylpropan-2-ol]",1240,2456 (78) %,–,670,151,670 (83) %,2460
–,"CC(C)(F)CC1CN(c2ccc(F)c(S(C)(=O)=O)c2)CCN1c1ccc(C(F)(F)F)cn1 (stereo not shown) [35-1, 2-(2-fluoro-2-methylpropyl)-4-(4-fluoro-3-(methylsulfonyl)phenyl)-1-(5-(trifluoromethyl)pyridin-2-yl)piperazine]",272,1522 (97) %,–,499,38,499 (88) %,1520

SMILES,Ki (LXR β LBD protein) [nM],Ki (LXR α LBD protein) [nM],Cell LXRα efficacy [1],EC50 ([1]; agonist mode) [nM],EC50 [2] [nM],Ki (LXR β LBD protein; read-out: LXRβ Binding Ki) [nM],Cell LXRβ efficacy [2],EC50 [1] [nM]
"CC(C)[C@@H]1CN(c2ccc(F)c(S(C)(=O)=O)c2)CCN1c1ncc(CN(C)CCCO)c(C(F)(F)F)n1 [15-9, (R)-3-(((2-(4-(4-fluoro-3-(methylsulfonyl)phenyl)-2-isopropylpiperazin-1-yl)-4-(trifluoromethyl)pyrimidin-5-yl)methyl)(methyl)amino)propan-1-ol]",146,2060,4170 (10) %,4170,> 20000,–,–,–
